Tests used:
[1] = system: 50B11 cells; conditions: 24 hours
Method: Conditions for culturing the 50B11 cells and measuring the ATP levels were optimized for the 96-well plate format. Initially 500 cells/well were plated in 96-well plates for 24 hours and then differentiated with forskolin (50 μM) in culture medium with reduced serum (0.2%). […] Cellular ATP levels were measured using the ViaLight Plus kit (Cambrex, city, state) according to manufacturer's instructions. This luciferase-based assay allows measurement of ATP levels on a luminometer with minimal manipulation of the well contents.
Next, we tested whether we can evaluate the neurotoxicity of capsaicin in an assay suitable for 96-well plate format. Capsaicin causes axonal degeneration and death of nociceptive DRG sensory neurons [ref here]. In order to evaluate cell survival we used a luciferase-based assay to measure cellular ATP levels.

[2] = molecular target: T1, TRPV-1 (Rattus norvegicus, UniProt O35433); test: Ca2+ microfluorimetry (fura-2 ratiometric imaging) of the capsaicin response; assay type: cell-based
T1 construct: endogenous in cells; host or cells: 50B11 immortalized rat DRG neuronal cell line, with and without forskolin differentiation
T1 sequence (O35433 whole entry): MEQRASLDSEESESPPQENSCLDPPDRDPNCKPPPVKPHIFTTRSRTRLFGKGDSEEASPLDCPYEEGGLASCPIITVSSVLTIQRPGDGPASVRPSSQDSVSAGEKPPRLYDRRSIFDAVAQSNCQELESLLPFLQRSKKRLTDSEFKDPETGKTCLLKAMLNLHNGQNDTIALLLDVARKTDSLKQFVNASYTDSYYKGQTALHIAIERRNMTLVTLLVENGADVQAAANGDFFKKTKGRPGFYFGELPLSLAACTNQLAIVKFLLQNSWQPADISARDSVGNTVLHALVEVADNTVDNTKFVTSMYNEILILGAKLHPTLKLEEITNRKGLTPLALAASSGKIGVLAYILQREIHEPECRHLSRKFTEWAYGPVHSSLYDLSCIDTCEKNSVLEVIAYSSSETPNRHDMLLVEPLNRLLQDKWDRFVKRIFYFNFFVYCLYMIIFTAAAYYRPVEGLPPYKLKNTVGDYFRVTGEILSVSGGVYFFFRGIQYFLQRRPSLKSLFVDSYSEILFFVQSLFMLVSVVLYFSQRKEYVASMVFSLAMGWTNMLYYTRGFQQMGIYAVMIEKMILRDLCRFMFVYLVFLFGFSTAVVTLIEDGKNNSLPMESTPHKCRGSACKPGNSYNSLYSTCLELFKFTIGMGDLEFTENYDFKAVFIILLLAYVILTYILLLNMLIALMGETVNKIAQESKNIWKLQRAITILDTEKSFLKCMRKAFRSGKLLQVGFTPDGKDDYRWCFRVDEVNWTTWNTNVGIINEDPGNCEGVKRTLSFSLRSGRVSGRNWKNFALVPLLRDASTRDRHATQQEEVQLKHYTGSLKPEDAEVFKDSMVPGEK
Method: Ca^2+ microfluorimetry and imaging in forskolin-differentiated 50HB cells were performed by ratiometric imaging of the Ca2+-sensitive fluorescent dye fura-2. Cells were grown on glass coverslips in 12-well dishes and calcium imaging was done with and without differentiation with 50-μM forskolin. Cell were loaded for 15 min at 37° C. with 2 M fura-2 acetoxymethyl ester (Molecular Probes, Carlsbad, Calif.) in Krebs-HEPES buffer (100 mM NaCl, 2.0 mM KCl, 1.0 mM CaCl2, 1.0 mM MgCl2, 1.0 mM NaH2PO4, 4.2 mM NaHCO3, 12.5 mM HEPES and 10.0 mM glucose), then washed for 3 times in buffer to remove remaining fura-2 ester. The coverslip with loaded cells was then mounted on an inverted epifluorescence microscope (Zeiss, Axiovert 200) and covered with 60 μl Krebs-HEPES buffer or buffer with capsaicin. In capsazepin pretreatment experiments, capsazepin was added Images were acquired every ˜3 seconds with an extended Hamamatsu Digital Camera C4742-95 (Hamamatsu Photonics, Barcelona, Spain) using a dual filter wheel (Sutter Instruments, Novato, Calif., USA) equipped with 340 and 380 nm, 10-nm-bandpass filters (Omega Optics, Madrid, Spain). Data was acquired using InCyt Im2 software (Intracellular Imaging, Inc.). Fluorescence changes are expressed as the ratio of fluorescence at 340 and 380 nm (F340/F380).

[3] = system: 50B11 cells; test: Axonal degeneration, total neurite length measurement; assay type: cell-based, rat; conditions: differentiated 50B11 cells treated 24 hours
[4] = system: 50B11 cells; test: Real-time PCR of gene expression changes; assay type: cell-based, rat
Method: For analysis of changes in gene expression, 501311 cells were grown in media containing forskolin (50 μM), NGF (10 ng/ml), GDNF (10 ng/ml) or vehicle control for 24 hours. Total RNA was isolated using the TRIzol Reagent according to the manufacturer's recommendation. Two μg total RNA was reverse-transcribed using Ready-To-Go You-Prime First-Strand Bead (Amersham Biosciences, Piscataway, N.J.) according to manufacturer's protocols. Real-time PCR was carried out in a DNA Engine Opticon Continuous Fluorescence Detection System using DyNAmo SYBR Green Polymerase (MJ Research, Waltham, Mass.). All primers were designed according to the individual gene sequence in the GenBank/EMBL nucleotide sequence database (primer sequences are available upon request). The binding positions of all primers were chosen to produce amplicons of 150 to 200 base pairs and to achieve maximum efficiency and specificity. All primer sequences were checked for specificity by a BLAST search in the GenBank/EMBL nucleotide sequence database. The primers were synthesized by Integrated DNA Technologies, Inc. (Coralville, Iowa). […] The expression levels of individual genes before and after treatment were calculated using the comparative CT method.

[5] = system: 50B11 cells; test: Forskolin-induced differentiation and neurite extension of the immortalized DRG neuronal line; assay type: cell-based, rat; conditions: for neurite extension in presence of neurotrophic factor: 50B11 cells
Method: One of the immortalized DRG neuronal cell lines (50B11) maintained self-replication capability over many cell divisions (>300) and was used in further analysis of neuronal properties. Differentiation and axonal elongation was induced in these cells by addition of forskolin (50 μM) into the culture medium. Within hours, more than 90% cells stopped dividing and extended long neurites. These cells were grown in 24-well plates on glass coverslips, fixed with 4% paraformaldehyde and immunostained for presence of neurofilament (SMI-32 antibody from Stemberger Monoclonals Inc., Lutherville, Md.), ßIII-tubulin (Promega, Madison Wis.), transient receptor potential channel, vanilloid subfamily member-1 (TRPV-1) (Abeam, Cambridge, Mass.), calcitonin gene related protein (CGRP) (source, city, state) or isolectin B-4 (IB4) (Vector Laboratories, Burlingame, Calif.) using standard methods (Keswani et al., supra). Slides were counterstained with 4′,6-Diamidino-2-phenylindole (DAPI) and mounted with Vectashield (Vector Laboratories, Burlingame, Calif.). Specificity of all primary and secondary antibodies was confirmed using appropriate positive and negative control cultures.

CCC(C)(C)C(=O)C(=O)N1CCC[C@H]1C(=O)OCCCc1cccnc1 [GPI-1046]
prevention of ddC neurotoxicity (ATP levels) ([1]; co-administration with ddC): preventable

COc1cc(CNC(=O)CCCC/C=C/C(C)C)ccc1O [capsaicin]
intracellular calcium levels ([2]; 50B11 cells, fura-2 F340/F380): rapid rise in intracellular calcium levels
reduction in ATP levels ([1]; 10 μM capsaicin, differentiated 50B11 cells): about 50%

Nc1ccn([C@H]2CC[C@@H](CO)O2)c(=O)n1 [ddC]
toxicity by total neuritic lengths [3]: validated this toxicity

Oc1cc2c(cc1O)CN(C(=S)NCCc1ccc(Cl)cc1)CCC2 [capsazepin]
prevention of capsaicin-induced rise in intracellular calcium ([2]; pretreatment of 50B11 cells before capsaicin): preventable
prevention of capsaicin-induced neurotoxicity (ATP levels) ([1]; co-administration with capsaicin): preventable

NGF: neurotrophic factor, nerve growth factor
Trk-A upregulation ([4]; forskolin plus NGF 10 ng/ml versus forskolin plus GDNF): more upregulated
neurite extension in presence of neurotrophic factor [5]: extended longer neurites

C=C[C@@]1(C)CC(=O)[C@]2(O)[C@@]3(C)[C@@H](O)CCC(C)(C)[C@@H]3[C@H](O)[C@H](OC(C)=O)[C@@]2(C)O1 [forskolin]
cells that stopped dividing and extended long neurites ([5]; forskolin 50 μM in culture medium, within hours): more than 90%

B1: GDNF: neurotrophic factor acting on c-ret and GFRα-1 (protein, UniProt P39905 78-211, looked up)
Glial cell line-derived …: SPDKQMAVLPRRERNRQAAAANPENSRGKGRRGQRGKNRGCVLTAIHLNVTDLGLGYETKEELIFRYCSGSCDAAETTYDKILKNLSRNRRLVSDKVGQACCRPIAFDDDLSFLDDNLVYHILRKHSAKRCGCI
GFRα-1 upregulation ([4]; forskolin plus GDNF 10 ng/ml versus forskolin plus NGF): more upregulated
neurite extension in presence of neurotrophic factor [5]: extended longer neurites

Reference: patent US10273451B2, “Immortalization of cells including neuronal cells” (The Johns Hopkins University, priority 2005, dated 2019)
